Assay results published in article PMC7297817, “Pharmacological Characterization of a Betaine/GABA Transporter 1 (BGT1) Inhibitor Displaying an Unusual Biphasic Inhibition Profile and Anti-seizure Effects” (Neurochemical Research, 2020).
“Also recorded” adds a separate entry of the source. Read-outs that look alike come from different tables or passages of the source.

Tests used:
[1] = test system: BZP rat brain; assay: NIMH PDSP radioligand binding, BZP rat brain; conditions: 10 μM; radioligand [3H]Flunitrazepam; n=4
Description: IC50 values in μM (Ki μM)^a. The targets in bold were inhibited by >35% at 10 μM.

[2] = molecular target: T1, mGAT1 (Mus musculus, UniProt P31648); assay: [3H]GABA uptake at mGAT1 stably expressed in HEK-293 cells; format: cell-based
T1 construct: expressed in transfected cells
Description: The HEK-293 and Flp-In CHO cell lines stably expressing mouse (m) and human (h) GATs, respectively, have been described previously and were cultured accordingly. The tsA201 cell line was used for transient expression while the MDCK II cell line express BGT1 endogenously. Both cell lines were cultured as described. tsA201 cells were transfected with DNA constructs (8 μg per 10 cm dish if not otherwise mentioned) using 40 μL PolyFect transfection reagent according to the manufacturer’s protocol (Qiagen, Venlo, Netherlands). The DNA constructs encoding hBGT1, hGAT1-3 [36], the mutated constructs hBGT1 Q299 and hGAT3 L314Q described previously, and hBGT Y453A were synthesized and sequence validated by Genscript (NJ, USA).
The [^3H]GABA competition uptake assay was performed as previously described. A minor change, however, was introduced for uptake in MDCK II cells, in which 100 nM [^3H]GABA was used for a 15 min incubation period at 37 °C instead of 30 nM [^3H]GABA and 3 min incubation. Studies related to the inhibition curves with GABA and BPDBA at hBGT1 were obtained both with and without the presence of 10 μM ATP during the [^3H]GABA uptake assay.
The [^3H]GABA uptake data was normalized to the percentage of total uptake in the individual experiments in the presence of the lowest compound concentration or no compound present. Data presented is the pooled data of at least three independent experiments with three technical replicates. Concentration–response curves (CRCs) were fitted with GraphPad Prism (version 8.2.1, Yosemite, GraphPad Software, San Diego, CA, USA) by non-linear regression to the sigmoidal concentration response model: Y=Bottom+(Top-Bottom)/1+10^LogIC50-X∗nH where Top is the Top plateau, Bottom is the Bottom plateau, X is the logarithm of the concentration of the compound, LogIC50 is the concentration giving a response halfway between Top and Bottom,and nH is the Hill slope.
The best fit for CRCs obtained with the [^3H]GABA uptake assay was identified by the extra-sum-of-squares F test (for convenience referred to as F test).

[3] = molecular target: T2, D4 (Homo sapiens, UniProt P21917); assay: NIMH PDSP radioligand binding, D4; conditions: radioligand [3H]N-methylspiperone, n=4
T2 construct: purchased NIMH Psychoactive Drug Screening Program (PDSP)
T2 sequence (P21917 whole entry): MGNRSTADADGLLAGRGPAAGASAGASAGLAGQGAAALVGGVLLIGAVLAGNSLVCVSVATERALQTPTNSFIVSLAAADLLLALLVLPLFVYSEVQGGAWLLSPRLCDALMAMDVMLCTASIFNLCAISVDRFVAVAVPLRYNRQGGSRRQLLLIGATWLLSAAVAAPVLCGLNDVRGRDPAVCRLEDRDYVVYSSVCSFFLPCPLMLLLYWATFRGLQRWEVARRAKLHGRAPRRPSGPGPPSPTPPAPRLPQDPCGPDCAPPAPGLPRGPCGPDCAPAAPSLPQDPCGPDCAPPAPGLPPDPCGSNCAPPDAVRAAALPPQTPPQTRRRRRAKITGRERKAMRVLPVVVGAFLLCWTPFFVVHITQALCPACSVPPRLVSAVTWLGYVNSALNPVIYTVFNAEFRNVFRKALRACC

[4] = molecular target: T3, DOR (Homo sapiens, UniProt P41143); assay: NIMH PDSP radioligand binding, DOR; conditions: radioligand [3H]DADLE, n=4
T3 construct: purchased NIMH Psychoactive Drug Screening Program (PDSP)
T3 sequence (P41143 whole entry): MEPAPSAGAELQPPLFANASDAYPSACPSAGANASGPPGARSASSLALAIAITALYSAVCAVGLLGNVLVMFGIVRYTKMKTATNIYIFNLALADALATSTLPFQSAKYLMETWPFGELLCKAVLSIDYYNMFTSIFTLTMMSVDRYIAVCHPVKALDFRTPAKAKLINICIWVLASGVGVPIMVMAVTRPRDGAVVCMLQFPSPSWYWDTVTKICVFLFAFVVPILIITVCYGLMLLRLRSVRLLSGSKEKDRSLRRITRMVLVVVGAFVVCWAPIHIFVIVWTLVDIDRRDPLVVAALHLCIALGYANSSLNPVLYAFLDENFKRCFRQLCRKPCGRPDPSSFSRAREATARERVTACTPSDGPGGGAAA

In the case of Cc1ccsc1C(=CCCN(C)[C@H]1CCCC[C@H]1C(=O)O)c1sccc1C [SBV2-114, (1R,2S)-2-((4,4-bis(3-methylthiophen-2-yl)but-3-en-yl)(methyl)amino)cyclohexanecarboxylic acid], the “% inhibition” value [1] is reported as 9.1%, the IC50 ([2]; ambiguous fit, N=1 experiment, read-out: IC50) is reported as over 1000 µM and the Frac ([2]; biphasic fit, N=1 experiment) is reported as 0.14. The IC50 ([2]; biphasic fit, N=1 experiment, read-out: pIC50, high affinity component (converted)) was 0.417 µM, the IC50 ([2]; monophasic fit, N=1 experiment, read-out: IC50) was over 1000 µM and the Fit ([2]; preferred model per experiment, F test) was “Biphasic; also recorded: Monophasic; also recorded: Ambiguous”. It also gave an IC50 ([2]; read-out: IC50, low affinity component, biphasic fit, N=1 experiment) of 755 µM, an inhibition at 10 µM [3] of -5.1% and an inhibition at 10 µM [4] of 36.6%.
